Columns and labels:
CodB [1] = target: T1, CodB (Proteus vulgaris, UniProt A0A6G6SKI1); assay: crystal structure at […] Å; GFP thermostability assay titration (Kd); sodium-dependent 3H-cytosine uptake in cells; format: binding; design: CodB from P. vulgaris expressed as CodB-GFP fusion (GFP-TS assay); cleaved with 3C protease for crystallisation
CodB [2] = target: T1, CodB; assay: GFP thermostability assay titration (Kd); inhibition of 3H-cytosine uptake in cells; format: binding; design: CodB from P. vulgaris expressed as CodB-GFP fusion, detergent-solubilised membranes

T1 sequence (A0A6G6SKI1 entry or part of it): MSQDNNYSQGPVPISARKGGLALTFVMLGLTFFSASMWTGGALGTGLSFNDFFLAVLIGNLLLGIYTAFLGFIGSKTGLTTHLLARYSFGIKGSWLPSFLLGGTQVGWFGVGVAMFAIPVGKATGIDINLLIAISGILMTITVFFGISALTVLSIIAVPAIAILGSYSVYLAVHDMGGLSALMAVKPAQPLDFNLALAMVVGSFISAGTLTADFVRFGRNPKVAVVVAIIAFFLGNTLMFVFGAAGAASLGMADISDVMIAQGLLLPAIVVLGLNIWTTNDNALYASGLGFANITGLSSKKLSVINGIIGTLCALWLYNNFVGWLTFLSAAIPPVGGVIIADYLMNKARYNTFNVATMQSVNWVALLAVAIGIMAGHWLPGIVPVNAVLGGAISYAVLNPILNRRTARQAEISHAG

Compound	Kd (CodB [1]) [µM]	Kd (CodB [2]) [µM]
Nc1cc[nH]c(=O)n1 [cytosine]	51 ± 9	
Nc1nc(=O)[nH]cc1F [5-fluorocytosine]		285 ± 39

From PMC9379551, “Structure of cytosine transport protein CodB provides insight into nucleobase‐cation symporter 1 mechanism” (The EMBO Journal, 2022)
